Assay results taken from patent US20080306044A1, “SPIROBENZOAZEPANES AS VASOPRESSIN ANTAGONISTS” (priority 2007, published 2008).
Where two headings read alike, the source gives them in different places.

Columns and labels:
human V1a receptor = target: T1, human V1a receptor (Homo sapiens, UniProt P37288); test: cell-based
T1 construct: expressed in transfected cells
Experimental: The V1a receptor is a G-protein coupled receptor, which upon activation triggers an increase in intracellular calcium mobilization. To evaluate compounds for their functional V1a receptor activity, HEK-293 cells were transfected with the human V1a receptor (V1a-HEK cells). HEK-293 cells were grown in DMEM (Dulbecco's modified Eagle Media) supplemented with 10% FBS and glutamine. HEK-cells were passed biweekly by trypsinization and seeded into 96 well plates at 33,000 cells per well. HEK-293 cells were transfected with human V1a receptor DNA using DMRIE-C reagent from Life Technologies (Carlsbad, Calif.). Stable lines were generated by selecting cells grown in culture media containing geneticin. After growing in Packard Clear-View black 96 well plates for 4-6 days, V1a-HEK cells were loaded with the calcium-sensitive fluorescence dye, FLUO-3 AM. Changes in intracellular calcium mobilization were measured by quantitating intracellular fluorescence using FLIPR (Fluorometric Imaging Plate Reader; Molecular Devices, Sunnyvale, Calif.). Test compounds were first added to the cells and the resulting changes in fluorescence measured to detect receptor agonistic activity. Five minutes later the cells were challenged with vasopressin to test compounds for their antagonistic activity. Receptor antagonists inhibit the ability of vasopressin to stimulate increases in intracellular fluorescence.

human V2 receptor = human V2 receptor (Homo sapiens, UniProt P30518); test: V2 vasopressin receptor functional activity (cAMP accumulation); type: cell-based; design: expressed in transfected cells; host or cells: HEK-293
human V2 receptor, sequence (P30518 whole entry): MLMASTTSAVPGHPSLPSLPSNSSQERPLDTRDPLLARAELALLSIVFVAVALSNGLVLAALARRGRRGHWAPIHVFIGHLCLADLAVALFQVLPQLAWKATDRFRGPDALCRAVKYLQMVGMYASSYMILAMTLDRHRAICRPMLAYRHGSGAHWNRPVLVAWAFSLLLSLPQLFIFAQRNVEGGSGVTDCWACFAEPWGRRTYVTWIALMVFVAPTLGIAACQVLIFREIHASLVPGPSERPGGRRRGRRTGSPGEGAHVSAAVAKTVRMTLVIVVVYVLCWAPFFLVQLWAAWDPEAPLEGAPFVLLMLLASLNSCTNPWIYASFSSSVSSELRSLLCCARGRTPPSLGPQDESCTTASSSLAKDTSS
Experimental: The V2 receptor is also a G-protein coupled receptor which when activated induces an increase in cAMP turnover. Antagonism against the V2 receptor is determined by measuring cAMP accumulation in transfected HEK-293 cells expressing the human V-2 receptor (V2-HEK cells). Compounds are tested for their ability to block the stimulatory effects of vasopressin on cAMP accumulation. The cell content of cAMP is measured by radioimmunoassay using NEN flashplates.

[1] = V2-HEK cells, block of vasopressin-stimulated cAMP accumulation, read-out: V2 (functional) IC50
[2] = V1 (functional) IC50, V1a-HEK cells, inhibition of vasopressin-stimulated intracellular calcium mobilization
[3] = V1a-HEK cells, inhibition of vasopressin-stimulated intracellular calcium mobilization, read-out: V1 (functional) IC50

T1 sequence (P37288 whole entry): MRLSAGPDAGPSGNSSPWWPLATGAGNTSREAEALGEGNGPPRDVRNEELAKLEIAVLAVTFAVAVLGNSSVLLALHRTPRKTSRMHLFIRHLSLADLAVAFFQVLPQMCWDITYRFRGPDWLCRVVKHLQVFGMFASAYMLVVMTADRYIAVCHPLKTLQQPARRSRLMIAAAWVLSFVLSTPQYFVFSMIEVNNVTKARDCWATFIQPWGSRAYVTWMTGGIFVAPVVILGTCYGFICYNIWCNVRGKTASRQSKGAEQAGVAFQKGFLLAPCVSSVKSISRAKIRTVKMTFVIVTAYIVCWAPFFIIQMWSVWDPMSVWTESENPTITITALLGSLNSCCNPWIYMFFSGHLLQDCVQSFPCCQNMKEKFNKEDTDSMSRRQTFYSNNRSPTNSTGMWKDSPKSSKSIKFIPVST

IC50 (human V1a receptor; [2])	IC50 (human V2 receptor)	Structure (SMILES)	IC50 (human V1a receptor)	IC50 (human V2 receptor; [1])	IC50 (human V1a receptor; [3])
–	–	COc1cc(C(=O)N2CC[C@@]3(CCC(=CC(=O)NCCN(C)C)C3)Cc3ccccc32)ccc1NC(=O)c1cc(F)ccc1Cl [Cpd 31, (R)-N-[3-methoxy-4-(2-chloro-5-fluoro-phenylcarbonyl)amino-phenylcarbonyl]-3-(2-dimethylamino-ethyl)aminocarbonylmethylene-spiro[cyclopentane-1,4′-benzo[b]azepane]]	150 nM	140 nM	–
–	–	COc1cc(C(=O)N2CC[C@@]3(CCC(=CC(=O)NCCN4CCOCC4)C3)Cc3ccccc32)ccc1NC(=O)c1cc(F)ccc1Cl [Cpd 28, (R)—N-[3-methoxy-4-(2-chloro-5-fluoro-phenylcarbonyl)amino-phenylcarbonyl]-3-(2-morpholin-4-yl-ethyl)aminocarbonylmethylene-spiro[cyclopentane-1,4′-benzo[b]azepane]]	220 nM	200 nM	–
130 nM	–	COc1cc(C(=O)N2CC[C@@]3(CCC(=NN(C)C)C3)Cc3ccccc32)ccc1NC(=O)c1cc(F)ccc1Cl [Cpd 27, (R)—N-[3-methoxy-4-(2-chloro-5-fluoro-phenylcarbonyl)amino-phenylcarbonyl]-3-dimethylaminoimino-spiro[cyclopentane-1,4′-benzo[b]azepane]]	–	390 nM	–
–	–	COc1cc(C(=O)N2CC[C@]3(C=C(c4ncc[nH]4)CC3)Cc3ccccc32)ccc1NC(=O)c1cc(F)ccc1Cl [Cpd 14, (R)-N-[3-methoxy-4-(2-chloro-5-fluoro-phenylcarbonyl)amino-phenylcarbonyl]-3-(1H-imidazol-2-yl)-spiro[cyclopent-2-ene-1,4′-benzo[b]azepane]]	–	730 nM	95 nM
250 nM	–	COc1cc(C(=O)N2CC[C@@]3(CC[C@H](NS(N)(=O)=O)C3)Cc3ccccc32)ccc1NC(=O)c1cc(F)ccc1Cl [Cpd 34, (1R,3S)-3-aminosulfonylamino-N-[3-methoxy-4-(2-chloro-5-fluoro-phenylcarbonyl)amino-phenylcarbonyl]-spiro[cyclopentane-1,4′-benzo[b]azepane]]	–	250 nM	–
100 nM	–	COc1cc(C(=O)N2CC[C@@]3(CCC(NS(N)(=O)=O)C3)Cc3ccccc32)ccc1NC(=O)c1cc(F)ccc1Cl (stereo partly drawn) [Cpd 19, (1R)-3-aminosulfonylamino-N-[3-methoxy-4-(2-chloro-5-fluoro-phenylcarbonyl)amino-phenylcarbonyl]-spiro[cyclopentane-1,4′-benzo[b]azepane]]	–	120 nM	–
170 nM	–	COc1cc(C(=O)N2CC[C@@]3(CCC(=CC(N)=O)C3)Cc3ccccc32)ccc1NC(=O)c1cc(F)ccc1Cl [Cpd 32, (R)-3-aminocarbonylmethylene-N-[3-methoxy-4-(2-chloro-5-fluoro-phenylcarbonyl)amino-phenylcarbonyl]-spiro[cyclopentane-1,4′-benzo[b]azepane]]	–	34 nM	–
–	–	COc1cc(C(=O)N2CC[C@@]3(CCC(NCCN(C)C)C3)Cc3ccccc32)ccc1NC(=O)c1cc(F)ccc1Cl (stereo partly drawn) [Cpd 21, (1R)—N-[3-methoxy-4-(2-chloro-5-fluoro-phenylcarbonyl)amino-phenylcarbonyl]-3-(2-dimethylamino-ethyl)amino-spiro[cyclopentane-1,4′-benzo[b]azepane]]	170 nM	1100 nM	–
78 nM	–	COc1cc(C(=O)N2CC[C@@]3(CC[C@@H](NS(N)(=O)=O)C3)Cc3ccccc32)ccc1NC(=O)c1cc(F)ccc1Cl [Cpd 35, (1R,3R)-3-aminosulfonylamino-N-[3-methoxy-4-(2-chloro-5-fluoro-phenylcarbonyl)amino-phenylcarbonyl]-spiro[cyclopentane-1,4′-benzo[b]azepane]]	–	44 nM	–
–	–	COc1cc(C(=O)N2CC[C@]3(C=C(C(=O)NS(=O)(=O)N(C)C)CC3)Cc3ccccc32)ccc1NC(=O)c1cc(F)ccc1Cl [Cpd 36, (R)-N-[3-methoxy-4-(2-chloro-5-fluoro-phenylcarbonyl)amino-phenylcarbonyl]-3-[(dimethylaminosulfonyl)aminocarbonyl]-spiro[cyclopent-2-ene-1,4′-benzo[b]azepane]]	210 nM	170 nM	–
–	–	COc1cc(C(=O)N2CC[C@]3(C=C(C(=O)NS(N)(=O)=O)CC3)Cc3ccccc32)ccc1NC(=O)c1cc(F)ccc1Cl [Cpd 13, (R)-3-aminosulfonylaminocarbonyl-N-[3-methoxy-4-(2-chloro-5-fluoro-phenylcarbonyl)amino-phenylcarbonyl]-spiro[cyclopent-2-ene-1,4′-benzo[b]azepane]]	–	11 nM	27 nM
–	–	COc1cc(C(=O)N2CC[C@@]3(CCC(=CC(=O)O)C3)Cc3ccccc32)ccc1NC(=O)c1cc(F)ccc1Cl [Cpd 16, (R)-N-[3-methoxy-4-(2-chloro-5-fluoro-phenylcarbonyl)amino-phenylcarbonyl]-3-carboxymethylene-spiro[cyclopentane-1,4′-benzo[b]azepane]]	30 nM	74 nM	–
–	–	COc1cc(C(=O)N2CC[C@@]3(CCC(N(C)C)C3)Cc3ccccc32)ccc1NC(=O)c1cc(F)ccc1Cl (stereo partly drawn) [Cpd 20, (1R)—N-[3-methoxy-4-(2-chloro-5-fluoro-phenylcarbonyl)amino-phenylcarbonyl]-3-dimethylamino-spiro[cyclopentane-1,4′-benzo[b]azepane]]	–	–	490 nM
–	–	COc1cc(C(=O)N2CC[C@@]3(CCC(N4CCCC4)C3)Cc3ccccc32)ccc1NC(=O)c1cc(F)ccc1Cl (stereo partly drawn) [Cpd 25, (1R)-N-[3-methoxy-4-(2-chloro-5-fluoro-phenylcarbonyl)amino-phenylcarbonyl]-3-(1H-pyrrolidin-1-yl)-spiro[cyclopentane-1,4′-benzo[b]azepane]]	810 nM	1000 nM	–
–	–	COc1cc(C(=O)N2CC[C@@]3(CCC(N)C3)Cc3ccccc32)ccc1NC(=O)c1cc(F)ccc1Cl (stereo partly drawn) [Cpd 17, (1R)-3-amino-N-[3-methoxy-4-(2-chloro-5-fluoro-phenylcarbonyl)amino-phenylcarbonyl]-spiro[cyclopentane-1,4′-benzo[b]azepane]]	730 nM	1100 nM	–
–	–	COc1cc(C(=O)N2CC[C@@]3(CCC(=NOCC(=O)O)C3)Cc3ccccc32)ccc1NC(=O)c1cc(F)ccc1Cl [Cpd 24, (R)—N-[3-methoxy-4-(2-chloro-5-fluoro-phenylcarbonyl)amino-phenylcarbonyl]-3-carboxymethoxyimino-spiro[cyclopentane-1,4′-benzo[b]azepane]]	100 nM	220 nM	–
–	–	COc1cc(C(=O)N2CCC3(CCCC3NS(N)(=O)=O)Cc3ccccc32)ccc1NC(=O)c1cc(F)ccc1Cl (stereo not drawn) [Cpd 33, 2-aminosulfonylamino-N-[3-methoxy-4-(2-chloro-5-fluoro-phenylcarbonyl)amino-phenylcarbonyl]-spiro[cyclopentane-1,4′-benzo[b]azepane]]	330 nM	31 nM	–
90 nM	400 nM	COc1cc(C(=O)N2CC[C@@]3(CCC(=NO)C3)Cc3ccccc32)ccc1NC(=O)c1cc(F)ccc1Cl [Cpd 15, (R)-N-[3-methoxy-4-(2-chloro-5-fluoro-phenylcarbonyl)amino-phenylcarbonyl]-3-hydroxyimino-spiro[cyclopentane-1,4′-benzo[b]azepane]]	–	–	–
–	–	COc1cc(C(=O)N2CC[C@@]3(CCC(N4CCOCC4)C3)Cc3ccccc32)ccc1NC(=O)c1cc(F)ccc1Cl (stereo partly drawn) [Cpd 18, (1R)—N-[3-methoxy-4-(2-chloro-5-fluoro-phenylcarbonyl)amino-phenylcarbonyl]-3-morpholin-4-yl-spiro[cyclopentane-1,4′-benzo[b]azepane]]	240 nM	1200 nM	–
–	–	COc1cc(C(=O)N2CC[C@@]3(CCC(N4CCN(C)CC4)C3)Cc3ccccc32)ccc1NC(=O)c1cc(F)ccc1Cl (stereo partly drawn) [Cpd 23, (1R)—N-[3-methoxy-4-(2-chloro-5-fluoro-phenylcarbonyl)amino-phenylcarbonyl]-3-(4-methyl-piperazin-1-yl)-spiro[cyclopentane-1,4′-benzo[b]azepane]]	–	–	710 nM
210 nM	–	CNC(=O)C=C1CC[C@@]2(CCN(C(=O)c3ccc(NC(=O)c4cc(F)ccc4Cl)c(OC)c3)c3ccccc3C2)C1 [Cpd 30, (R)—N-[3-methoxy-4-(2-chloro-5-fluoro-phenylcarbonyl)amino-phenylcarbonyl]-3-methylaminocarbonylmethylene-spiro[cyclopentane-1,4′-benzo[b]azepane]]	–	90 nM	–
–	–	COc1cc(C(=O)N2CC[C@]3(C=C(C4=NCCN4)CC3)Cc3ccccc32)ccc1NC(=O)c1cc(F)ccc1Cl [Cpd 12, (R)-N-[3-methoxy-4-(2-chloro-5-fluoro-phenylcarbonyl)amino-phenylcarbonyl]-3-(4,5-dihydro-1H-imidazol-2-yl)-spiro[cyclopent-2-ene-1,4′-benzo[b]azepane]]	–	1100 nM	320 nM
